In brackets after ≈: the same amount, converted by molar mass. Read-outs that look alike come from different tables or passages of the source.
What was measured:
Format in all cases: cell-based
[1] = test system: Streptococcus pyogenes 1079; assay: MIC, microtiter broth dilution (NCCLS M100-S14), S. pyogenes 1079 (ermB)
Description: (§1) The assay described herein includes a panel of bacterial strains assembled to include a variety of target pathogenic species, including representatives of macrolide resistance mechanisms that have been characterized. In many cases, both the macrolide-susceptible parent strain and the macrolide-resistant strain derived from it are available to provide a more accurate assessment of the compound's ability to circumvent the resistance mechanism. The assay is performed in microtiter trays and interpreted according to Performance Standards for Antimicrobial Susceptibility Testing; 14th Informational Supplement (M100-S14), published by The National Committee for Clinical Laboratory Standards (NCCLS) guidelines; the MIC is used to compare strains. Compounds are initially dissolved in DMSO as 40 mg/ml stock solutions.

[2] = test system: Streptococcus pneumoniae 1016; assay: MIC, microtiter broth dilution (NCCLS M100-S14), S. pneumoniae 1016 (susceptible)
Description: as §1

[3] = test system: Streptococcus pneumoniae 1095; details: microtiter broth dilution
Description: as §1

[4] = test system: Streptococcus pneumoniae 1175; details: microtiter broth dilution
Description: as §1

[5] = test system: Haemophilus influenzae 1218; assay: MIC, microtiter broth dilution (NCCLS M100-S14), H. influenzae 1218 (susceptible)
Description: as §1

[6] = S. pneumoniae 1016 (susceptible)
[7] = H. influenzae 1218 (susceptible)

SMILES	MIC S. pyogenes 1079 ([1]; S. pyogenes 1079 (ermB))	MIC S. pneumo. 1016 [2, 6]	MIC S. pneumo. 1095 ([3]; S. pneumoniae 1095 (ermB))	MIC S. pneumo. 1175 ([4]; S. pneumoniae 1175 (mefA))	MIC H. influenzae 1218 [5, 7]	MIC S. pyogenes 1079 ([1]; Streptococcus pyogenes 1079)	MIC S. pneumo. 1016 ([2]; Streptococcus pneumoniae 1016)	MIC S. pneumo. 1095 ([3]; Streptococcus pneumoniae 1095)	MIC S. pneumo. 1175 ([4]; Streptococcus pneumoniae 1175)	MIC H. influenzae 1218 ([5]; Haemophilus influenzae 1218)
CC[C@H]1OC(=O)[C@H](C)C(=O)[C@H](C)[C@@H](O[C@@H]2O[C@H](C)C[C@H](N(C)C)[C@H]2O)[C@](C)(OC)C[C@@H](C)C(=O)[C@H](C)[C@H]2N(CC3(C)CN(C(=O)c4cnc5ccccc5c4)C3)C(=O)O[C@]12C.O=CO [6.12]	>64.00 µg/mL	<0.06 µg/mL	0.25 µg/mL	0.12 µg/mL	–	–	–	–	–	–
CC[C@H]1OC(=O)[C@H](C)C(=O)[C@H](C)[C@@H](O[C@@H]2O[C@H](C)C[C@H](N(C)C)[C@H]2O)[C@](C)(OC)C[C@@H](C)C(=O)[C@H](C)[C@H]2N(CC3(C)CN(C(=O)c4ccnc5ccccc45)C3)C(=O)O[C@]12C.O=CO [6.13]	>64.00 µg/mL	<0.06 µg/mL	8 µg/mL	<0.06 µg/mL	–	–	–	–	–	–
CC[C@H]1OC(=O)[C@H](C)C(=O)[C@H](C)[C@@H](O[C@@H]2O[C@H](C)C[C@H](N(C)C)[C@H]2O)[C@](C)(OC)C[C@@H](C)C(=O)[C@H](C)[C@H]2N(CC3(C)CN(C(=O)c4cccc5ncccc45)C3)C(=O)O[C@]12C.O=CO [6.14]	>64.00 µg/mL	<0.06 µg/mL	8 µg/mL	0.25 µg/mL	–	–	–	–	–	–
CC[C@H]1OC(=O)[C@H](C)C(=O)[C@H](C)[C@@H](O[C@@H]2O[C@H](C)C[C@H](N(C)C)[C@H]2O)[C@](C)(OC)C[C@@H](C)C(=O)[C@H](C)[C@H]2N(CC3(C)CN(C(=O)c4ccc5ncccc5c4)C3)C(=O)O[C@]12C.O=CO [6.15]	>64.00 µg/mL	<0.06 µg/mL	8 µg/mL	2 µg/mL	–	–	–	–	–	–
CC[C@H]1OC(=O)[C@H](C)C(=O)[C@H](C)[C@@H](O[C@@H]2O[C@H](C)C[C@H](N(C)C)[C@H]2O)[C@](C)(OC)C[C@@H](C)C(=O)[C@H](C)[C@H]2N(CC3(C)CN(C(=O)c4ccc5cccnc5c4)C3)C(=O)O[C@]12C.O=CO [6.16]	>64.00 µg/mL	<0.06 µg/mL	0.12 µg/mL	0.12 µg/mL	–	–	–	–	–	–
CC[C@H]1OC(=O)[C@H](C)C(=O)[C@H](C)[C@@H](O[C@@H]2O[C@H](C)C[C@H](N(C)C)[C@H]2O)[C@](C)(OC)C[C@@H](C)C(=O)[C@H](C)[C@H]2N(CC3(C)CN(C(=O)c4cccc5cccnc45)C3)C(=O)O[C@]12C.O=CO [6.17]	>64.00 µg/mL	<0.06 µg/mL	>64.00 µg/mL	0.12 µg/mL	–	–	–	–	–	–
CC[C@H]1OC(=O)[C@H](C)C(=O)[C@H](C)[C@@H](O[C@@H]2O[C@H](C)C[C@H](N(C)C)[C@H]2O)[C@](C)(OC)C[C@@H](C)C(=O)[C@H](C)[C@H]2N(CC3(C)CN(C(=O)c4nc5ccccc5[nH]4)C3)C(=O)O[C@]12C.O=CO [6.18]	>64.00 µg/mL	<0.06 µg/mL	0.25 µg/mL	0.25 µg/mL	–	–	–	–	–	–
CC[C@H]1OC(=O)[C@H](C)C(=O)[C@H](C)[C@@H](O[C@@H]2O[C@H](C)C[C@H](N(C)C)[C@H]2O)[C@](C)(OC)C[C@@H](C)C(=O)[C@H](C)[C@H]2N(CC3(C)CN(C(=O)c4ccc5ncsc5c4)C3)C(=O)O[C@]12C.O=CO [6.19]	>64.00 µg/mL	<0.06 µg/mL	1 µg/mL	0.5 µg/mL	–	–	–	–	–	–
CC[C@H]1OC(=O)[C@H](C)C(=O)[C@H](C)[C@@H](O[C@@H]2O[C@H](C)C[C@H](N(C)C)[C@H]2O)[C@](C)(OC)C[C@@H](C)C(=O)[C@H](C)[C@H]2N(CC3(C)CN(C(=O)c4cncc5ccccc45)C3)C(=O)O[C@]12C.O=CO [6.20]	>64.00 µg/mL	<0.06 µg/mL	64 µg/mL	0.5 µg/mL	–	–	–	–	–	–
CC[C@H]1OC(=O)[C@H](C)C(=O)[C@H](C)[C@@H](O[C@@H]2O[C@H](C)C[C@H](N(C)C)[C@H]2O)[C@](C)(OC)C[C@@H](C)C(=O)[C@H](C)[C@H]2N(CC3(C)CN(C(=O)c4cccc(-n5cccn5)n4)C3)C(=O)O[C@]12C.O=CO [6.21]	>64.00 µg/mL	<0.06 µg/mL	16 µg/mL	0.5 µg/mL	–	–	–	–	–	–
CC[C@H]1OC(=O)[C@H](C)C(=O)[C@H](C)[C@@H](O[C@@H]2O[C@H](C)C[C@H](N(C)C)[C@H]2O)[C@](C)(OC)C[C@@H](C)C(=O)[C@H](C)[C@H]2N(CC3(C)CN(C(=O)c4cc5cccnc5[nH]4)C3)C(=O)O[C@]12C [6.23]	64 µg/mL (≈ 76.2 µM)	<0.06 µg/mL	<0.06 µg/mL	0.25 µg/mL (≈ 0.298 µM)	–	–	–	–	–	–
CCC1OC(=O)C(C)C(=O)C(C)C(OC2OC(C)CC(N(C)C)C2O)C(C)(OC)CC(C)C(=O)C(C)C2N(CC3CCN(Cc4cccc5cccnc45)C3)C(=O)OC12C (stereo not shown) [11.12]	–	<0.06 µg/mL	<0.06 µg/mL	<0.06 µg/mL	<0.06 µg/mL	–	–	–	–	–
CCC1OC(=O)C(C)C(=O)C(C)C(OC2OC(C)CC(N(C)C)C2O)C(C)(OC)CC(C)C(=O)C(C)C2N(CC3CCN(Cc4cccc5cnccc45)C3)C(=O)OC12C (stereo not shown) [11.13]	–	<0.06 µg/mL	<0.06 µg/mL	<0.06 µg/mL	0.25 µg/mL (≈ 0.299 µM)	–	–	–	–	–
CCC1OC(=O)C(C)C(=O)C(C)C(OC2OC(C)CC(N(C)C)C2O)C(C)(OC)CC(C)C(=O)C(C)C2N(C3CN(Cc4ccc5ncccc5c4)C3)C(=O)OC12C (stereo not shown) [Example 1.07, (quinolin-6-yl)methyl]	–	–	–	–	–	16 µg/mL (≈ 19.8 µM)	<0.06 µg/mL	<0.06 µg/mL	0.25 µg/mL (≈ 0.309 µM)	–
CCC1OC(=O)C(C)C(=O)C(C)C(OC2OC(C)CC(N(C)C)C2O)C(C)(OC)CC(C)C(=O)C(C)C2N(C3CN(Cc4ccc(F)c(F)c4)C3)C(=O)OC12C (stereo not shown) [Example 1.08, 3,4-difluorobenzyl]	–	–	–	–	–	>64.00 µg/mL	<0.06 µg/mL	0.5 µg/mL (≈ 0.63 µM)	0.25 µg/mL (≈ 0.315 µM)	–
CCC1OC(=O)C(C)C(=O)C(C)C(OC2OC(C)CC(N(C)C)C2O)C(C)(OC)CC(C)C(=O)C(C)C2N(C3CN(Cc4nc5ccccc5[nH]4)C3)C(=O)OC12C (stereo not shown) [Example 1.09, (1H-benzo[d]imidazo-2-yl)methyl]	–	–	–	–	–	>64.00 µg/mL	<0.06 µg/mL	<0.06 µg/mL	0.25 µg/mL (≈ 0.313 µM)	–
CCC1OC(=O)C(C)C(=O)C(C)C(OC2OC(C)CC(N(C)C)C2O)C(C)(OC)CC(C)C(=O)C(C)C2N(C3CN(Cc4ccn(-c5ccccn5)n4)C3)C(=O)OC12C (stereo not shown) [Example 1.10]	–	–	–	–	–	>64.00 µg/mL	<0.06 µg/mL	<0.06 µg/mL	0.12 µg/mL (≈ 0.145 µM)	–
CCC1OC(=O)C(C)C(=O)C(C)C(OC2OC(C)CC(N(C)C)C2O)C(C)(OC)CC(C)C(=O)C(C)C2N(C3CN(C(COC)c4ccnc5ncccc45)C3)C(=O)OC12C (stereo not drawn) [Example 1.81, 3-descladinosyl-11,12-dideoxy-4-O-methyl-3-oxo-12,11-(oxycarbonyl-(1-(2-(methoxy)-1R-(1,8-napthyridin-4-yl)-ethyl)-azetidin-3-yl)-imino)-erythromycin A]	–	–	–	–	–	4 µg/mL (≈ 4.68 µM)	<0.063 µg/mL	0.5 µg/mL (≈ 0.585 µM)	<0.063 µg/mL	–
CCC1OC(=O)C(C)C(=O)C(C)C(OC2OC(C)CC(N(C)C)C2O)C(C)(OC)CC(C)C(=O)C(C)C2N(CC3CN(C(=O)c4cccc5cccnc45)C3)C(=O)OC12C (stereo not shown) [Example 4.34, 3-descladinosyl-11,12-dideoxy-6-O-methyl-3-oxo-12,11-(oxycarbonyl-((1-(quinoline-8-carbonyl)-azetidin-3-yl)-methyl)-imino)-erythromycin A]	–	–	–	–	–	–	<0.06 µg/mL	1 µg/mL (≈ 1.19 µM)	1 µg/mL (≈ 1.19 µM)	0.25 µg/mL (≈ 0.299 µM)

Source: US7462600B2, “Macrolides” (Pfizer Inc, priority 2004, dated 2008)
